Results reported in patent publication US9113629B2, “4-amino-6-(4-substituted-phenyl)-picolinates and 6-amino-2-(4-substituted-phenyl)-pyrimidine-4-carboxylates and their use as herbicides” (DOW AGROSCIENCES LLC, priority 2013, dated 2015).
Read-outs that look alike come from different tables or passages of the source.

Key:
[1] = system: Key Broadleaf Weed and Crop Species; assay: Post-emergent Test II herbicidal activity (Table 5); assay type: in vivo; details: post-emergence, 336 h, post-emergent, 14 days after application; for pest or weed control at 70 g/ha: 70 g ai/ha; for pest or weed control at 140 g/ha: 140 g ai/ha
In short: (§1)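 Greenhouse-grown plants at first or second true leaf stage were sprayed post-emergence with compound in acetone/DMSO-based aqueous spray containing crop oil concentrate and surfactant, at 187 L/ha, highest rate plus ½× to 1/16× dilutions. After 14 d, injury was scored visually versus untreated plants, 0 (none) to 100% (complete kill).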

[2] = system: Key Grass and Sedge Weeds as well as Grass Crops; assay: Post-emergent Test II herbicidal activity (Table 6); assay type: in vivo; details: post-emergence, 336 h; for pest or weed control at 70 g/ha: application rate 70 g ai/ha; for pest or weed control at 140 g/ha: application rate 140 g ai/ha
In short: as §1

[3] = ABUTH: velvetleaf (Abutilon theophrasti), read-out: Visual Growth Reduction (%) 14 Days After Application ABUTH
[4] = AMARE: redroot pigweed (Amaranthus retroflexus), read-out: Visual Growth Reduction (%) 14 Days After Application AMARE
[5] = BRSNN: oilseed-rape, canola (Brassica napus), read-out: Visual Growth Reduction (%) 14 Days After Application BRSNN
[6] = CHEAL: lambsquarters (Chenopodium album), read-out: Visual Growth Reduction (%) 14 Days After Application CHEAL
[7] = EPHHL: wild poinsettia (Euphorbia heterophylla), read-out: Visual Growth Reduction (%) 14 Days After Application EPHHL
[8] = HELAN: sunflower (Helianthus annuus), read-out: Visual Growth Reduction (%) 14 Days After Application HELAN
[9] = VIOTR: wild pansy (Viola tricolor), read-out: Visual Growth Reduction (%) 14 Days After Application VIOTR
[10] = CYPES: yellow nutsedge (Cyperus esculentus), read-out: Visual Growth Reduction (%) 14 Days After Application, CYPES
[11] = DIGSA: crabgrass (Digitaria sanguinalis), read-out: Visual Growth Reduction (%) 14 Days After Application, DIGSA
[12] = ECHCG: barnyardgrass (Echinochloa crus-galli), read-out: Visual Growth Reduction (%) 14 Days After Application, ECHCG
[13] = ORYSA: rice (Oryza sativa), read-out: Visual Growth Reduction (%) 14 Days After Application, ORYSA
[14] = SETFA: giant foxtail (Setaria faberi), read-out: Visual Growth Reduction (%) 14 Days After Application, SETFA
[15] = SORVU: grain sorghum (Sorghum vulgare), read-out: Visual Growth Reduction (%) 14 Days After Application, SORVU
[16] = TRZSS (wheat, Triticum aestivum), read-out: Visual Growth Reduction (%) 14 Days After Application, TRZSS
[17] = ZEAMX: maize, corn (Zea mays), read-out: Visual Growth Reduction (%) 14 Days After Application, ZEAMX
[18] = Triticum aestivum, TRZSS (wheat), read-out: Visual Growth Reduction (%) 14 Days After Application, TRZSS

N#Cc1ccc(-c2nc(C(=O)O)c(Cl)c(N)c2F)c(F)c1 [Compound 65, 4-amino-3-chloro-6-(4-cyano-2-fluorophenyl)-5-fluoropicolinic acid]
pest or weed control at 70 g/ha [1, 3]: 0 to 29% | pest or weed control at 140 g/ha [1, 3]: 0 to 29% | pest or weed control at 70 g/ha [1, 4]: 95 to 100% | pest or weed control at 140 g/ha [1, 4]: 95 to 100% | pest or weed control at 70 g/ha [1, 5]: 0 to 29% | pest or weed control at 140 g/ha [1, 5]: 30 to 44% | pest or weed control at 70 g/ha [1, 6]: 60 to 74% | pest or weed control at 140 g/ha [1, 6]: 75 to 84% | pest or weed control at 70 g/ha [1, 7]: 95 to 100% | pest or weed control at 140 g/ha [1, 7]: 95 to 100% | pest or weed control at 70 g/ha [1, 8]: 85 to 94% | pest or weed control at 140 g/ha [1, 8]: 95 to 100% | pest or weed control at 70 g/ha [1, 9]: 0 to 29% | pest or weed control at 140 g/ha [1, 9]: 30 to 44% | pest or weed control at 70 g/ha [2, 10]: 0 to 29% | pest or weed control at 140 g/ha [2, 10]: 0 to 29% | pest or weed control at 70 g/ha [2, 11]: 0 to 29% | pest or weed control at 140 g/ha [2, 11]: 0 to 29% | pest or weed control at 70 g/ha [2, 12]: 0 to 29% | pest or weed control at 140 g/ha [2, 12]: 0 to 29% | pest or weed control at 70 g/ha [2, 13]: 0 to 29% | pest or weed control at 140 g/ha [2, 13]: 0 to 29% | pest or weed control at 70 g/ha [2, 14]: 0 to 29% | pest or weed control at 140 g/ha [2, 14]: 0 to 29% | pest or weed control at 70 g/ha [2, 15]: 0 to 29% | pest or weed control at 140 g/ha [2, 15]: 0 to 29% | pest or weed control at 70 g/ha [2, 16]: 0 to 29% | pest or weed control at 140 g/ha [2, 16]: 0 to 29% | pest or weed control at 70 g/ha [2, 17]: 0 to 29% | pest or weed control at 140 g/ha [2, 17]: 0 to 29%

C=Cc1c(N)nc(-c2ccc(C(F)(F)F)c(F)c2)nc1C(=O)OC [Compound 137, Methyl 6-amino-2-(3-fluoro-4-(trifluoromethyl)phenyl)-5-vinylpyrimidine-4-carboxylate]
pest or weed control at 70 g/ha [1, 3]: 75 to 84% | pest or weed control at 140 g/ha [1, 3]: 85 to 94% | pest or weed control at 70 g/ha [1, 4]: 0 to 29% | pest or weed control at 140 g/ha [1, 4]: 0 to 29% | pest or weed control at 70 g/ha [1, 5]: 0 to 29% | pest or weed control at 140 g/ha [1, 5]: 0 to 29% | pest or weed control at 70 g/ha [1, 6]: 0 to 29% | pest or weed control at 140 g/ha [1, 6]: 45 to 59% | pest or weed control at 70 g/ha [1, 7]: 0 to 29% | pest or weed control at 140 g/ha [1, 7]: 60 to 74% | pest or weed control at 70 g/ha [1, 8]: 45 to 59% | pest or weed control at 140 g/ha [1, 8]: 60 to 74% | pest or weed control at 70 g/ha [1, 9]: 0 to 29% | pest or weed control at 140 g/ha [1, 9]: 0 to 29% | pest or weed control at 70 g/ha [2, 18]: 0 to 29% | pest or weed control at 140 g/ha [2, 18]: 0 to 29% | pest or weed control at 70 g/ha [2, 10]: 45 to 59% | pest or weed control at 140 g/ha [2, 10]: 45 to 59% | pest or weed control at 70 g/ha [2, 11]: 0 to 29% | pest or weed control at 140 g/ha [2, 11]: 0 to 29% | pest or weed control at 70 g/ha [2, 12]: 0 to 29% | pest or weed control at 140 g/ha [2, 12]: 0 to 29% | pest or weed control at 70 g/ha [2, 13]: 0 to 29% | pest or weed control at 140 g/ha [2, 13]: 0 to 29% | pest or weed control at 70 g/ha [2, 14]: 0 to 29% | pest or weed control at 140 g/ha [2, 14]: 0 to 29% | pest or weed control at 70 g/ha [2, 15]: 0 to 29% | pest or weed control at 140 g/ha [2, 15]: 0 to 29% | pest or weed control at 70 g/ha [2, 17]: 0 to 29% | pest or weed control at 140 g/ha [2, 17]: 0 to 29%
